Among the data in publication PMC6727418, “Cyanidin-3-rutinoside acts as a natural inhibitor of intestinal lipid digestion and absorption” (BMC Complementary and Alternative Medicine, 2019) are IC50 and inhibition values, retold here.

The target of experiment [1] is T1, Porcine pancreatic lipase (Sus scrofa, UniProt P00591).
T1 construct: gene PNLIP
T1 sequence (P00591 1-450): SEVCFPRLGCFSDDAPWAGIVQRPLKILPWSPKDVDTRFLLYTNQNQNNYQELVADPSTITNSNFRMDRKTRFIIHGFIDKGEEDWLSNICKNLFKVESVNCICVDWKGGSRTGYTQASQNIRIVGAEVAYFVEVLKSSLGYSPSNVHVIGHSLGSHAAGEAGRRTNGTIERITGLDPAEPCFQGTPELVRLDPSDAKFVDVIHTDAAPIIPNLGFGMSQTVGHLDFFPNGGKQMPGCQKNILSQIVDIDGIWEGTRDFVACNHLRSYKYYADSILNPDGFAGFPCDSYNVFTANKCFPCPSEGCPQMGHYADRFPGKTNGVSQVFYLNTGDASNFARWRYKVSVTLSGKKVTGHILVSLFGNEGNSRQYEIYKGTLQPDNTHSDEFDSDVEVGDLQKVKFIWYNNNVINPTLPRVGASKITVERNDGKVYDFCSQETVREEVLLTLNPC
Kind of experiment: fluorometric 4-MUO hydrolysis assay; Lineweaver-Burk kinetics (Ki […], Ki'[…]). It counts as biochemical.

Experiment [2] addresses T2, porcine pancreatic cholesterol esterase (Sus scrofa, UniProt A0A286ZKB1).
T2 construct: gene CEL
T2 sequence (A0A286ZKB1 96-682): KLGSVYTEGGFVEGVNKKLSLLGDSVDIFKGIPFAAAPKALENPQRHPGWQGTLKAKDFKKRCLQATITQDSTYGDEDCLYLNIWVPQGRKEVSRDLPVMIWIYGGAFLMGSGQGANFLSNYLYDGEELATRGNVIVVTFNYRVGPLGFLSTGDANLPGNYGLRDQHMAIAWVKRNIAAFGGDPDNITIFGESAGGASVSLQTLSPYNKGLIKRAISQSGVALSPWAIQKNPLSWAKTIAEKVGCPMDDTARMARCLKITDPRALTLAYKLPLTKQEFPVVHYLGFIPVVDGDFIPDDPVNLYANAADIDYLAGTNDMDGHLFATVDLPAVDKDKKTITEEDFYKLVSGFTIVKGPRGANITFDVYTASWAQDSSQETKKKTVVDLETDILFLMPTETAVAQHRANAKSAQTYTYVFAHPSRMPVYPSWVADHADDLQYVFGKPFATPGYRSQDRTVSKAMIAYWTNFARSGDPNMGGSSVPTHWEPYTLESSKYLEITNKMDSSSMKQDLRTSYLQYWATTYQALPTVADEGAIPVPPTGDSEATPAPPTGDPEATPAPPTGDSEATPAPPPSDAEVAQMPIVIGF
Put plainly: colorimetric p-NPB hydrolysis assay, percent inhibition at […]. It counts as biochemical. Conditions: read-out: % inhibition at 1 mM.

As usually defined, the IC50 is the concentration needed to halve the response being measured. Low values mean inhibition by little substance, high ones a need for much substance. The term inhibition denotes the share of the control response that was lost under treatment.

Consider `C[C@@H]1O[C@@H](OC[C@H]2O[C@@H](Oc3cc4c(O)cc(O)cc4[o+]c3-c3ccc(O)c(O)c3)[C@H](O)[C@@H](O)[C@@H]2O)[C@H](O)[C@H](O)[C@H]1O` [C3R, Cyanidin-3-rutinoside], for which the IC50 in experiment [1] was 59.4 ± 1.41 µM. Take `O=C(O)c1cc(O)c(O)c(O)c1` [gallic acid]: the inhibition at 1000 µM in experiment [2] was ~39%.
